Structures are written as SMILES.

As usually defined, the melting point is the temperature of the solid-liquid transition. On to `O=C(Cc1ccccc1)N1CCN(Cc2n[nH]c3cc(F)ccc23)CC1`, for which the melting point was in the range of 173 to 174 °C. For `O=C(O)CCc1cn(Cc2ccc(OCc3csc(-c4ccccc4)n3)nc2)nc1-c1ccccc1`, the melting point lay within 107 to 108 °C. The result for `COc1ccccc1NC(=O)Nc1nc(Nc2ccccc2-c2ccccc2)nc(N(CCC(=O)O)Cc2ccc(C(F)(F)F)cc2)n1` reads 125 to 128 °C; that for `O=C(O)CCCc1ccc(S(=O)(=O)Nc2ccc(Cl)cc2)cn1`, 150 to 152 °C; that for `CCCCN(CCCC)C(=O)Nc1ccccc1`, 82 °C. As for `CC1CCCC(C)N1CCNC(=O)CN1CC(c2ccccc2)CC1=O` (centres undefined), the melting point fell in the range of 115 to 116 °C.

In turn, `CCOC(=O)c1ccc2cc(N=[N+]=[N-])ccn2c1=O` came in with a melting point of 145 to 150 °C. With `CC(=Cc1cccc([N+](=O)[O-])c1)C(=O)Oc1ccc(Cl)cc1` the figure was 102 °C. With `CCOc1cc2c(cc1OC)CCN(c1nc(N)c3cc(OC)c(OC)cc3n1)C2` the figure was 258 to 260 °C; with `COC(=O)COC1c2ccccc2COc2ccc(OCc3ccc4cc(Cl)ccc4n3)cc21` (centres undefined), 144 to 147 °C. Molecule `N#Cc1cccc(N2CCc3cc(Cl)ccc32)c1` registered a melting point of 120 to 121 °C. For the molecule `CC(=O)O[C@H]1C[C@@H](n2ccc(N)nc2=O)[C@H](O)[C@@H]1O` (racemic), the melting point fell in the range of 121 to 124 °C. `O=C(O)CCC(=O)c1ccc([N+](=O)[O-])c(O)c1`: the melting point is 158 to 160 °C.

With `Cc1cc(S(=O)(=O)N2c3ccc(Br)cc3-c3ccccc3C2C)ccc1O` (centres undefined), the melting point is 193 to 195 °C. `CCN1CCCC1CNC(=O)c1c(C)[nH]c2ccccc12` (centres undefined) came in with a melting point of 132 to 135 °C. The molecule `COc1cc(C(C)C)ccc1C1(NC(=O)OC(C)C)C(=O)c2ccccc2C1=O` registered a melting point of 159 to 161 °C.

Take `CC(C)Nc1cccnc1N1CCN(C(=O)c2ccc(C(=O)N3CCN(CCCO)CC3)cc2)CC1`: the melting point was determined as 129 °C.

In turn, `CCc1cn(C2CC(O)(C(C)=O)C(CO)O2)c(=O)[nH]c1=O` (centres undefined) showed a melting point of 150 °C. `COc1c(N2CCC(N)C(C)C2)c(F)cc2c(=O)c(C(=O)O)cn(C3CC3)c12` (centres undefined) returned a melting point of 240 to 242 °C. The result for `Cc1ccccc1-c1c(NC(=O)Nc2ccc(F)cc2F)c(=O)oc2ccc(Cl)cc12` reads 210 to 212 °C.

`Cc1c(Cl)cc(C(C)(C)C)c(O)c1-c1nc2ccc(F)cc2c(=O)[nH]1`: the melting point fell in the range of 224 to 225 °C. The result for `Cn1nnnc1-n1cc(C(=O)O)c(=O)c2cc(F)c(Cl)nc21` reads 213 to 220 °C; that for `CCOC(=O)Cc1csc(NC(=O)C(F)(F)F)n1`, 119 to 121 °C. `Cc1oc(-c2ccccc2)nc1COc1cncc(COc2cccc(CC(=O)O)c2)c1` displayed a melting point of 143 to 144 °C.

`CCCCC(CC)CNc1cccc(-c2ccnc3c(C(=O)c4cccs4)cnn23)c1` (centres undefined): the melting point fell in the range of 134 to 138 °C. With `COc1ccccc1C(O)c1cc(Br)cc(Br)c1` (centres undefined) the figure was 112 to 116 °C; with `COc1nc2c(cc1NC(=S)N1CCN(c3cc(C)cc(C)c3)CC1)CCC2`, 159 to 161 °C. In turn, `COc1ccc(OCCO)cc1` gave a melting point of 69 to 71 °C. With `COc1cc(Nc2c(C#N)cnc3cc(-c4ccc5ccccc5c4)ccc23)c(Cl)cc1Cl` the figure was 243 to 244 °C. The result for `COC(=O)c1coc(-c2ncn3c2CN(C)C(=O)c2ccccc2-3)n1` reads 264 to 265 °C. Molecule `CC(=O)NCCOc1ccc([N+](=O)[O-])cc1O` displayed a melting point of 165 °C. `COc1ccc(CCN2CCC(Cc3nc4ncnc(O)c4n3Cc3ccc(F)cc3)CC2)cc1` gave a melting point of 122 °C. The result for `CS(=O)(=O)Nc1cc2c(cc1Oc1ccc(F)cc1F)C(=O)CC2c1ccccc1` (centres undefined) reads 101 °C; that for `CC(C)(C)OC(=O)NCCNC(=O)c1ncccc1OCc1ccccc1`, 145 to 147 °C.

For the origin of these results see a melting point compilation (Tetko et al.; mined from patent text by program, amines drawn as free bases though some values may be those of a salt).
